Experimental data taken from US10752587B2, “Homobispiperidinyl derivatives as liver X receptor beta agonists, compositions and their use” (Merck Sharp & Dohme Corp., priority 2015, dated 2020).

Assays:
[1] = molecular target: T1, glutathione-S-transferase (GST) tagged LXRalpha LBD (ligand binding domain) (Homo sapiens, UniProt Q13133); assay: LanthaScreen TR-FRET Liver X Receptor Coactivator Assay, co-activator recruitment to LXRalpha LBD; format: biochemical; conditions: for Emax: read-out: LXR alpha Activity @ max dose (%); for EC50 / LXR alpha IP (nM): potency (Inflection Point, IP), co-activator recruitment to LXRalpha LBD, in relation to T0901317; for EC50: read-out: LXR alpha IP
T1 construct: purchased Invitrogen pv4655
T1 sequence (Q13133 209-447 limits assumed): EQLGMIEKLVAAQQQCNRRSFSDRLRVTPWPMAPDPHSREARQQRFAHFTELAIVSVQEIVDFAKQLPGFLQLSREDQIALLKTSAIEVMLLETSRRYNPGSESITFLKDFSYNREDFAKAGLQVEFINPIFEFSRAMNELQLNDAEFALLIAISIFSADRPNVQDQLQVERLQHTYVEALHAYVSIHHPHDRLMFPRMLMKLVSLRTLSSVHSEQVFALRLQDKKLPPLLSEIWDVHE
Summary of the method: (§1)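 TR-FRET coactivator recruitment; compound + LBD, then fluorescein-coactivator peptide/Tb-anti-GST Ab mix; RT incubation; IP and Emax vs T0901317.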

[2] = molecular target: T2, glutathione-S-transferase (GST) tagged LXRbeta LBD (ligand binding domain) (Homo sapiens, UniProt P55055); assay: LanthaScreen TR-FRET Liver X Receptor Coactivator Assay, co-activator recruitment to LXRbeta LBD; format: biochemical; conditions: for Emax: read-out: LXR beta Activity @ max dose (%); for EC50: potency (Inflection Point, IP), co-activator recruitment to LXRbeta LBD, in relation to T0901317, read-out: LXR beta IP
T2 construct: purchased Invitrogen pv4658.pps
T2 sequence (P55055 222-460 limits assumed): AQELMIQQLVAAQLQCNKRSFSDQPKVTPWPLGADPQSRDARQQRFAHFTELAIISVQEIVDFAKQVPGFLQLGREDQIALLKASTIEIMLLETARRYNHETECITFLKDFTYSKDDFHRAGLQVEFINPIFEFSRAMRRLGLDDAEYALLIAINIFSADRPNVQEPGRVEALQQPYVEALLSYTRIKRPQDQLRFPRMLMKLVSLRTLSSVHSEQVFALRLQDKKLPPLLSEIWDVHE
Summary of the method: as §1

[3] = efficacy at max dose, in relation to reference dual agonist T0901317

| Structure (SMILES) | Emax [1, 3] [%] | EC50 [1] [µM] | Emax [2, 3] [%] | EC50 [2] [µM] | LXR alpha Activity @ max dose (%) [1, 3] [%] | LXR alpha IP (nM) [1] | LXR beta Activity @ max dose (%) [2, 3] [%] |
| --- | --- | --- | --- | --- | --- | --- | --- |
| CN(C)C(=O)c1ccc(N2CCC(CC3CCN(C(=O)C(N)(c4ccccc4)C(F)(F)F)CC3)CC2)nc1Cl (stereo not drawn) [Example 7-103, 6-(4-{[1-(2-amino-3,3,3-trifluoro-2-phenylpropanoyl)piperidin-4-yl]methyl}piperidin-1-yl)-2-chloro-N,N-dimethylpyridine-3-carboxamide] | 47 | 1.68 | 122 | 0.031 | – | – | – |
| CN(C)C(=O)c1ccc(N2CCC(CC3CCN(C(=O)[C@](O)(c4cc(Cl)cc(Cl)c4)C(F)(F)F)CC3)CC2)nc1Cl [Example 7-104, 2-chloro-6-[4-({1-[(2R)-2-(3,5-dichlorophenyl)-3,3,3-trifluoro-2-hydroxypropanoyl]piperidin-4-yl}methyl)piperidin-1-yl]-N,N-dimethylpyridine-3-carboxamide] | – | – | – | 0.003 | 0 | NO IP | 51 |
| COc1cc(Cl)cc(C(O)(C(=O)N2CCC(CC3CCN(c4ccc(C(=O)N(C)C)c(Cl)n4)CC3)CC2)C(F)(F)F)c1 (stereo not drawn) [Example 7-105, 2-chloro-6-[4-({1-[2-(3-chloro-5-methoxyphenyl)-3,3,3-trifluoro-2-hydroxypropanoyl]piperidin-4-yl}methyl)piperidin-1-yl]-N,N-dimethylpyridine-3-carboxamide] | 0 | – | 30 | 0.076 | – | NO IP | – |
| CN(C)C(=O)c1ccc(N2CCC(CC3CCN(C(=O)[C@](O)(c4cccc(OC5CC5)c4)C(F)(F)F)CC3)CC2)nc1Cl [Example 7-106, 2-chloro-6-{4-[(1-{(2R)-2-[3-(cyclopropyloxy)phenyl]-3,3,3-trifluoro-2-hydroxypropanoyl}piperidin-4-yl)methyl]piperidin-1-yl}-N,N-dimethylpyridine-3-carboxamide] | 0 | – | 41 | 0.005 | – | NO IP | – |
| COc1cc(Cl)cc([C@@](O)(C(=O)N2CCC(CC3CCN(c4ccc(C(=O)N(C)C)c(Cl)n4)CC3)CC2)C(F)(F)F)c1 [Example 7-107, 2-chloro-6-[4-({1-[(2R)-2-(3-chloro-5-methoxyphenyl)-3,3,3-trifluoro-2-hydroxypropanoyl]piperidin-4-yl}methyl)piperidin-1-yl]-N,N-dimethylpyridine-3-carboxamide] | 0 | – | 26 | 0.003 | – | NO IP | – |
| COc1cc(Cl)cc([C@](O)(C(=O)N2CCC(CC3CCN(c4ccc(C(=O)N(C)C)c(Cl)n4)CC3)CC2)C(F)(F)F)c1 [Example 7-108, 2-chloro-6-[4-({1-[(2S)-2-(3-chloro-5-methoxyphenyl)-3,3,3-trifluoro-2-hydroxypropanoyl]piperidin-4-yl}methyl)piperidin-1-yl]-N,N-dimethylpyridine-3-carboxamide] | 10 | – | 101 | 0.047 | – | NO IP | – |
| CN(C)C(=O)c1ccc(N2CCC(CC3CCN(C(=O)C(O)(c4cc(F)cc(Cl)c4)C(F)(F)F)CC3)CC2)nc1Cl (stereo not drawn) [Example 7-109, 2-chloro-6-[4-({1-[2-(3-chloro-5-fluorophenyl)-3,3,3-trifluoro-2-hydroxypropanoyl]piperidin-4-yl}methyl)piperidin-1-yl]-N,N-dimethyl-pyridine-3-carboxamide] | 52 | 0.051 | 107 | 0.004 | – | – | – |
| CN(C)C(=O)c1ccc(N2CCC(CC3CCN(C(=O)[C@@](N)(c4ccccc4)C(F)(F)F)CC3)CC2)nc1Cl [Example 7-110, 6-[4-({1-[(2S)-2-amino-3,3,3-trifluoro-2-phenylpropanoyl]piperidin-4-yl}methyl)piperidin-1-yl]-2-chloro-N,N-dimethylpyridine-3-carboxamide] | 10 | – | 54 | 0.118 | – | NO IP | – |
| CN(C)C(=O)c1ccc(N2CCC(CC3CCN(C(=O)[C@](N)(c4ccccc4)C(F)(F)F)CC3)CC2)nc1Cl [Example 7-111, 6-[4-({1-[(2R)-2-amino-3,3,3-trifluoro-2-phenylpropanoyl]piperidin-4-yl}methyl)piperidin-1-yl]-2-chloro-N,N-dimethylpyridine-3-carboxamide] | 49 | 1.75 | 151 | 0.049 | – | – | – |
| CN(C)C(=O)c1ccc(N2CCC(CC3CCN(C(=O)[C@](O)(c4cc(F)cc(Cl)c4)C(F)(F)F)CC3)CC2)nc1Cl [Example 7-112, 2-chloro-6-[4-({1-[(2R)-2-(3-chloro-5-fluorophenyl)-3,3,3-trifluoro-2-hydroxypropanoyl]piperidin-4-yl}methyl)piperidin-1-yl]-N,N-dimethylpyridine-3-carboxamide] | 45 | 0.065 | 96 | 0.003 | – | – | – |
| CN(C)C(=O)c1ccc(N2CCC(CC3CCN(C(=O)[C@@](O)(c4cc(F)cc(Cl)c4)C(F)(F)F)CC3)CC2)nc1Cl [Example 7-113, 2-chloro-6-[4-({1-[(2S)-2-(3-chloro-5-fluorophenyl)-3,3,3-trifluoro-2-hydroxypropanoyl]piperidin-4-yl}methyl)piperidin-1-yl]-N,N-dimethylpyridine-3-carboxamide] | 31 | 1.61 | 125 | 0.034 | – | – | – |
| COc1cccc([C@@](N)(C(=O)N2CCC(CC3CCN(c4ccc(C(=O)N(C)C)c(Cl)n4)CC3)CC2)C(F)(F)F)c1 [Example 7-114, 6-[4-({1-[(2R)-2-amino-3,3,3-trifluoro-2-(3-methoxyphenyl)propanoyl]piperidin-4-yl}methyl)piperidin-1-yl]-2-chloro-N,N-dimethylpyridine-3-carboxamide] | 0 | – | 21 | 0.236 | – | NO IP | – |
| CN(C)C(=O)c1ccc(N2CCC(CC3CCN(C(=O)[C@](O)(c4cccc(OC(F)F)c4)C(F)(F)F)CC3)CC2)nc1Cl [Example 7-115, 2-chloro-6-{4-[(1-{(2R)-2-[3-(difluoromethoxy)phenyl]-3,3,3-trifluoro-2-hydroxypropanoyl}piperidin-4-yl)methyl]piperidin-1-yl}-N,N-dimethylpyridine-3-carboxamide] | 17 | 0.251 | 60 | 0.005 | – | – | – |
| CNC(=O)c1ccc(N2CCC(CC3CCN(C(=O)[C@](O)(c4cc(Cl)cc(Cl)c4)C(F)(F)F)CC3)CC2)cc1Cl [Example 7-116, 2-chloro-4-[4-({1-[(2R)-2-(3,5-dichlorophenyl)-3,3,3-trifluoro-2-hydroxypropanoyl]piperidin-4-yl}methyl)piperidin-1-yl]-N-methylbenzamide] | 9 | – | 76 | 0.013 | – | NO IP | – |
| CNC(=O)c1ccc(N2CCC(CC3CCN(C(=O)[C@](O)(c4cc(Cl)cc(OC)c4)C(F)(F)F)CC3)CC2)cc1Cl [Example 7-117, 2-chloro-4-[4-({1-[(2R)-2-(3-chloro-5-methoxyphenyl)-3,3,3-trifuoro-2-hydroxypropanoyl]piperidin-4-yl}methyl)piperidin-1-yl]-N-methylbenzamide] | 0 | – | 35 | 0.025 | – | NO IP | – |
| CNC(=O)c1ccc(N2CCC(CC3CCN(C(=O)[C@](O)(c4cc(F)cc(OC)c4)C(F)(F)F)CC3)CC2)cc1Cl [Example 7-118, 2-chloro-N-methyl-4-[4-({1-[(2R)-3,3,3-trifluoro-2-(3-fluoro-5-methoxyphenyl)-2-hydroxypropanoyl]piperidin-4-yl}methyl)piperidin-1-yl]benzamide] | 20 | 0.243 | 98 | 0.007 | – | – | – |
| CNC(=O)c1ccc(N2CCC(CC3CCN(C(=O)[C@](O)(c4cccc(Br)c4)C(F)(F)F)CC3)CC2)cc1Cl [Example 7-119, 4-[4-({1-[(2R)-2-(3-bromophenyl)-3,3,3-trifluoro-2-hydroxypropanoyl]piperidin-4-yl}methyl)piperidin-1-yl]-2-chloro-N-methyl-benzamide] | 32 | 0.182 | 82 | 0.012 | – | – | – |
| CCc1cccc([C@@](O)(C(=O)N2CCC(CC3CCN(c4ccc(C(=O)NC)c(Cl)c4)CC3)CC2)C(F)(F)F)c1 [Example 7-120, 2-chloro-4-[4-({1-[(2R)-2-(3-ethylphenyl)-3,3,3-trifluoro-2-hydroxypropanoyl]piperidin-4-yl}methyl)piperidin-1-yl]-N-methylbenzamide] | 12 | – | 60 | 0.022 | – | NO IP | – |
